Experimental data as given in ChEMBL document CHEMBL5233265, “Recent advances in the design and development of formyl peptide receptor 2 (FPR2/ALX) agonists as pro-resolving agents with diverse therapeutic potential” (Eur J Med Chem, 2021).
One block for each compound: values may come before it.

How the values were obtained:
Format in all cases: cell-based
[1] = target: T1, N-formyl peptide receptor 2 (Homo sapiens, UniProt P25090); experiment: Agonist activity at human FPR2 expressed in CHO cells assessed as cAMP level incubated for 1.5 hr by HTRF assay
T1 sequence (P25090 whole entry): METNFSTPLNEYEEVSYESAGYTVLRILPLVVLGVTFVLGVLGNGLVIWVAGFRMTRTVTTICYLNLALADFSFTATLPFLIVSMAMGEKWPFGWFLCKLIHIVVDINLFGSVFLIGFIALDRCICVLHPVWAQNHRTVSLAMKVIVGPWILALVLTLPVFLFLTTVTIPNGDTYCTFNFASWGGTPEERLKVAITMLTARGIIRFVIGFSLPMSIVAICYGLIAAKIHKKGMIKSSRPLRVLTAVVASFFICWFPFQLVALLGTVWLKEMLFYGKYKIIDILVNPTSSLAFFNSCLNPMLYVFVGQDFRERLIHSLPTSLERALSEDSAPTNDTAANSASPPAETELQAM

[2] = target: T2, N-formyl peptide receptor 2 (Homo sapiens) (UniProt P25090); experiment: Agonist activity at FPR2 (unknown origin) expressed in CHO/Galpha16 cells assessed as maximal calcium flux at 0.61 to 10000 nM by FLIPR assay relative to control; conditions: dose 0.61-10000 nM
T2 sequence (whole entry): T1 sequence (P25090 whole entry)

Homo sapiens = species: Homo sapiens; experiment: Selectivity index, ratio of EC50 for agonist activity at FPR2 (unknown origin) expressed in CHO/Galpha16 cells to EC50 for FPR1 (unknown origin) expressed in CHO/Galpha16 cells
[3] = target: T3, fMet-Leu-Phe receptor (Homo sapiens) (UniProt P21462); experiment: Agonist activity at FPR1 (unknown origin) expressed in CHO/Galpha16 cells assessed as maximal calcium flux at 0.61 to 10000 nM by FLIPR assay relative to control; conditions: dose 0.61-10000 nM
T3 sequence (whole entry): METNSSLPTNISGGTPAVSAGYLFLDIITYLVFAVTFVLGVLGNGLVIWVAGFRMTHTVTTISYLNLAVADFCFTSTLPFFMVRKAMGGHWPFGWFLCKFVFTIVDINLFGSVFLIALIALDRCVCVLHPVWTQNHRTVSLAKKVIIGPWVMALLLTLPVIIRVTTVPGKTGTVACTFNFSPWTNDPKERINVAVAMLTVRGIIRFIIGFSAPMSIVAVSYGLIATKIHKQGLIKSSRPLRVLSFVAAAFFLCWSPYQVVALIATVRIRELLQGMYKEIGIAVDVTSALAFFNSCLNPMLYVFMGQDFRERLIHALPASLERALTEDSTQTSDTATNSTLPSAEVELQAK

fMet-Leu-Phe receptor [4] = target: T4, fMet-Leu-Phe receptor (Homo sapiens, UniProt P21462); experiment: Agonist activity at human FPR1 expressed in CHO cells assessed as cAMP level incubated for 1.5 hr by HTRF assay
T4 sequence (P21462 whole entry): T3 sequence (whole entry)

[5] = target: T1, N-formyl peptide receptor 2; experiment: Agonist activity at human FPR2 expressed in CHO cells assessed as increase in calcium flux incubated for 50 mins by FLIPR calcium 5 dye based fluorescence assay
fMet-Leu-Phe receptor [6] = target: T4, fMet-Leu-Phe receptor; experiment: Agonist activity at human FPR1 expressed in CHO cells assessed as increase in calcium flux incubated for 50 mins by FLIPR calcium 5 dye based fluorescence assay
[7] = target: T2, N-formyl peptide receptor 2 (Homo sapiens); experiment: Agonist activity at human FPR2 transfected in HL-60 cells assessed as maximal intracellular calcium flux incubated for 30 mins by Fluo-4 AM dye based fluorometer analysis relative to control; conditions: filed as agonist
fMet-Leu-Phe receptor [8] = target: T4, fMet-Leu-Phe receptor; experiment: Agonist activity at human FPR1 transfected in HL-60 cells assessed as increase in intracellular calcium flux incubated for 30 mins by Fluo-4 AM dye based fluorometer analysis; conditions: hl-60
[9] = target: T1, N-formyl peptide receptor 2; experiment: Agonist activity at human FPR2 transfected in HL-60 cells assessed as increase in intracellular calcium flux incubated for 30 mins by Fluo-4 AM dye based fluorometer analysis

SMILES: CP(C)(=O)c1ccccc1-c1ccc(N2CC[C@@H](NC(=O)Nc3csc(Cl)c3)C2=O)c(F)c1F
EC50 [1]: 2.9 nM

SMILES: CP(C)(=O)c1ccccc1-c1ccc(N2CC3(CC3)[C@@H](NC(=O)Nc3ccc(Cl)cc3F)C2=O)c(F)c1F
EC50 (fMet-Leu-Phe receptor [4]; read-out: EC50): > 5000 nM

SMILES: CN1CCN(c2ccc(N3CCC[C@@H](NC(=O)Nc4ccc(C(F)(F)F)cc4)C3=O)cc2)CC1
EC50 [1]: 10 nM

SMILES: Cc1cnc(NC(=O)N[C@@H]2CCCN(c3ccc(-c4ccccc4NS(C)(=O)=O)cc3F)C2=O)cn1
EC50 [1]: 22 nM
EC50 (fMet-Leu-Phe receptor [4]; read-out: EC50): 2000 nM

SMILES: COc1cc(F)c([C@@H]2CNC(=O)[C@H]2NC(=O)NC2(c3cccc(C)n3)CC2)c(F)c1
EC50 [1]: < 10 nM
EC50 (fMet-Leu-Phe receptor [4]; cho): Not Active

SMILES: COc1cc(F)c([C@@H]2CNC(=O)[C@H]2Nc2nnc(-c3ccc(Cl)cc3)s2)c(F)c1
EC50 [1]: < 40 nM
EC50 (fMet-Leu-Phe receptor [4]; cho): Not Active

SMILES: NC(=O)c1ccccc1-c1ccc(N2CCCC(NC(=O)Nc3ccc(C(F)(F)F)cc3)C2=O)cc1 (racemic)
EC50 [1]: 40 nM

SMILES: O=C(Nc1ccc(C(F)(F)F)cc1)N[C@@H]1CCCN(c2ccc(N3CC4(COC4)C3)cc2)C1=O
EC50 [1]: 10 nM

SMILES: COc1ccc([C@H]2CCN(Cc3ccccn3)C(=O)[C@@H]2NC(=O)Nc2ccc(F)cc2)cc1 (relative stereo)
EC50 [5]: < 1 nM
EC50 (fMet-Leu-Phe receptor [6]): 1 nM

SMILES: Cc1cccc(C2(NC(=O)N[C@@H]3C(=O)NC[C@H]3c3c(F)cc(Cl)cc3F)CC2)n1
EC50 [1]: 100 nM
EC50 (fMet-Leu-Phe receptor [4]; cho): Not Active

SMILES: O=C(Nc1ccc(C(F)(F)F)cc1)N[C@@H]1CCCN(c2ccc(N3CCOCC3)cc2)C1=O
EC50 [1]: < 10 nM

SMILES: COc1cc(F)c([C@@H]2CN(CC3CC3)C(=O)[C@H]2NC(=O)NC2(c3cccc(C)n3)CC2)c(F)c1
EC50 [1]: < 10 nM
EC50 (fMet-Leu-Phe receptor [4]; cho): Not Active

Continued, in another order:

Emax [2]: 81%
Emax [3]: 99%
SMILES: CC(C)C[C@H](NC(=O)CCNC(=O)Nc1ccc(Br)cc1)C(=O)O
Ratio EC50 (Homo sapiens): 74

Emax [2]: 56%
Emax [3]: 103%
SMILES: CC(C)C(C(=O)O)C(C)NC(=O)Nc1ccc(Br)cc1 (stereo in doubt; 19)
Ratio EC50 (Homo sapiens): 249

EC50 [5]: < 1 nM
SMILES: COc1ccc([C@H]2CCNC(=O)[C@@H]2NC(=O)Nc2ccc(Cl)cc2)cc1

Emax [2]: 91%
Emax [3]: 100%
SMILES: CC(C)C[C@H](NC(=O)CNC(=O)Nc1ccc(Br)cc1)C(=O)O
Ratio EC50 (Homo sapiens): 386

EC50 [1]: < 5 nM
SMILES: NC(=O)c1ccccc1-c1ccc(N2CCC[C@@H](NC(=O)Nc3ccc(Cl)cc3)C2=O)cc1

EC50 [1]: 40 nM
SMILES: O=C(Nc1ccc(C(F)(F)F)cc1)N[C@H]1CCCN(c2ccc(-c3ccccc3C(=O)O)cc2)C1=O

EC50 [5]: < 1 nM
EC50 (fMet-Leu-Phe receptor [6]): 1 nM
SMILES: COc1cc(F)c([C@H]2CCN(CC3CC3)C(=O)[C@@H]2NC(=O)Nc2ccc(Cl)cc2)c(F)c1

EC50 [1]: < 5 nM
SMILES: NC(=O)c1ccccc1-c1ccc(N2CCC[C@@H](NC(=O)Nc3ccc(C(F)(F)F)cc3)C2=O)cc1

Emax [7]: 70%
EC50 (fMet-Leu-Phe receptor [8]): Not Active
EC50 ([9]; read-out: EC50): 7000 nM
SMILES: COc1ccc(NC(=O)N[C@H](Cc2ccc(C#N)cc2)C(=O)NCC2(c3ccc(O)cc3)CC2)cc1

Emax [2]: 197%
Emax [3]: 97%
SMILES: O=C(CNC(=O)Nc1ccc(Br)cc1)N[C@@H](Cc1ccccc1)C(=O)O
Ratio EC50 (Homo sapiens): 24

Emax [2]: 89%
Emax [3]: 94%
SMILES: CC(C)C(C(=O)O)C(C)NC(=O)Nc1ccc(Br)cc1 (stereo in doubt; 18)
Ratio EC50 (Homo sapiens): 17

Emax [2]: 75%
Emax [3]: 91%
SMILES: CC(C)C(C(=O)O)C(C)NC(=O)Nc1ccc(Br)cc1 (stereo in doubt; 20)
Ratio EC50 (Homo sapiens): 101

EC50 [1]: 25 nM
SMILES: CP(C)(=O)c1ccccc1-c1ccc(N2CC[C@@H](NC(=O)Nc3ccc(Cl)cc3)C2=O)c(F)c1F

Emax [3]: 93%
SMILES: CC(C)C(C(=O)O)C(C)NC(=O)Nc1ccc(Br)cc1 (stereo in doubt; 21)

EC50 (fMet-Leu-Phe receptor [8]): Not Active
EC50 ([9]; hl-60): Not Active
SMILES: N#Cc1ccc(C[C@H](NC(=O)Nc2ccc(O)cc2)C(=O)NCC2(c3ccccc3)CC2)cc1
